According to patent publication US6011013A, “Contraceptive compositions and methods” (Oregon Health Sciences University, priority 1998, dated 2000):

Tests used:
[1] = test system: sperm; assay type: cell-based, bovine
Protocol: To determine if S-Ht31 affects sperm viability or structural integrity, the vital dyes SYBR-green and rhodamine 123 were added to sperm before and after treatment with S-Ht31. Only viable, intact cells take up these dyes.

[2] = test system: bovine caudal epididymal sperm; assay: Sperm motility by computer-automated sperm motility analysis (CASMA), Forward Motility Index; assay type: cell-based
Protocol: (A) Sperm were incubated in buffer A containing s-Ht31 at 5 μM (circle), 10 μM (square) or 50 μM (diamond) or a control peptide, S-Ht31-P at 50 μM (cross). Motility was assessed at the times indicated by computer-automated sperm motility analysis (CASMA) as described in Experimental Procedures. (B) Sperm were incubated for 5 min in buffer A containing increasing concentrations of S-Ht31 (diamonds) or control peptide S-Ht31-P (triangle) and motility was assessed.
(A) Bovine caudal epididymal sperm were suspended in buffer A supplemented with 2 mM calcium (+Calcium) or 2 mM EGTA (-Calcium). Motility was assessed by CASMA at 5, 30 and 60 min following addition of either water (control) or 10 μM s-Ht31. (B) Sperm were incubated in buffer A containing 2 mM calcium and 50 mM bicarbonate (where indicated). Motility was assessed at 5, 30 and 60 min following addition of either water (control) or 10 μM s-Ht31.
(§1) (A). Bovine caudal and caput sperm were incubated in buffer A in the presence or absence of 50 μM CDA and/or 50 μM H-89. When sperm were treated with both CDA and H-89, the H-89 was added 15 min prior to CDA. Motility was assessed by CASMA at 15 min following treatment. (B) Bovine sperm were incubated as described for A and then assessed for PKA activity. Where indicated, 10 μM cAMP was added to the PKA assay.
Sperm Preparation. […]
Sperm Motility Measurement. Head motility parameters were determined as previously described (Vijayaraghavan et al., Biol. Reprod 54:709-718, 1996; Stephens et al., Biol. Reprod. 38:577-586, 1988). […] After bulk fluid movement had subsided, six different locations on the slide were recorded. The videotaped segments were analyzed by a computerized image-analysis system (CASMA) as previously described (Vijayaraghavan et al., Biol. Reprod. 54:709-718, 1996; Stephens et al., Biol. Reprod. 38:577-586, 1988). […] FMI is a product of percent motile (%M, percent of sperm moving at velocity greater than […]) and average velocity (Va, the five-point smoothed average of the head positions through at least 20 of the 30 frames analyzed).

[3] = test system: PKA; assay: PKA activity of sperm treated whole, then washed and lysed; assay type: cell-based, bovine; settings: 50 μM
Protocol: as §1
PKA Activity PKA was assayed as previously described (Carr et al., J. Biol. Chem. 268:20729-20732, 1993) with minor changes. Whole caput or caudal sperm were treated with 2-chloro-2-deoxyadenosine (50 μM), H-89 (50 μM), or both for 30 min. at 37° C. The sperm were then washed twice in ice cold homogenization buffer supplemented with protease inhibitors, benzamidine (10 mM), leupeptin (4 μg/ml), and N-tosyl-L-phenylalanine chloromethyl ketone (TPCK) (100 μM), and sonicated for one min. Reaction mixtures (20 uL total) contained 250 μM kemptide, 250 μM (γ-^32 P)ATP, 25 mM Na3 VO4, 50 mM 3-[N-morpholino]propanesulfonic acid (MOPS) (pH=7.0), 10 mM MgCl2, 0.25 mg/ml BSA and where indicated, 10 μM cAMP. Assays were initiated by addition of labeled ATP, incubated for 2 min at 30° C., and stopped by addition of 30 μL of 1N HCl. […] The papers were then analyzed by Cerenkov counting. […]

[4] = test system: bovine caput sperm; assay: Caput sperm motility by CASMA; assay type: cell-based; settings: 50 μM H-89 added 15 min prior to 50 μM CDA
Protocol: (A). Bovine caudal and caput sperm were incubated in buffer A in the presence or absence of 50 μM CDA and/or 50 μM H-89. When sperm were treated with both CDA and H-89, the H-89 was added 15 min prior to CDA. Motility was assessed by CASMA at 15 min following treatment. (B) Bovine sperm were incubated as described for A and then assessed for PKA activity. Where indicated, 10 μM cAMP was added to the PKA assay. Sperm Preparation. Testes from mature bulls with intact tunica were obtained from a local slaughter house and sperm from caput or caudal epididymis were isolated and washed as previously described (Vijayaraghavan et al., Biol. Reprod. 32:489-500, 1985). […] Head motility parameters were determined as previously described (Vijayaraghavan et al., Biol. Reprod 54:709-718, 1996; Stephens et al., Biol. Reprod. 38:577-586, 1988). […] After bulk fluid movement had subsided, six different locations on the slide were recorded. The videotaped segments were analyzed by a computerized image-analysis system (CASMA) as previously described (Vijayaraghavan et al., Biol. Reprod. 54:709-718, 1996; Stephens et al., Biol. Reprod. 38:577-586, 1988). […] FMI is a product of percent motile (%M, percent of sperm moving at velocity greater than […]) and average velocity (Va, the five-point smoothed average of the head positions through at least 20 of the 30 frames analyzed).

C[C@@H]1CC[C@@]2(OC1)O[C@H]1[C@@H](O)[C@H]3[C@@H]4CC[C@H]5C[C@@H](O[C@@H]6O[C@H](CO)[C@H](O[C@@H]7O[C@H](CO)[C@@H](O)[C@H](O[C@@H]8OC[C@@H](O)[C@H](O)[C@H]8O)[C@H]7O[C@@H]7O[C@H](CO)[C@H](O)[C@H](O[C@@H]8O[C@H](CO)[C@@H](O)[C@H](O)[C@H]8O)[C@H]7O)[C@H](O)[C@H]6O)[C@H](O)C[C@]5(C)[C@H]4CC[C@]3(C)[C@H]1[C@@H]2C [digitonin]
release of dyes from sperm loaded with BCECF or Fura 2 (plasma membrane integrity) [1]: caused release of these dyes

CCCCCCCCCCCCCCCCCC(=O)N[C@@H](CC(=O)O)C(=O)N[C@@H](CC(C)C)C(=O)N[C@H](C(=O)N[C@@H](CCC(=O)O)C(=O)N[C@@H](CCC(=O)O)C(=O)N[C@@H](C)C(=O)N[C@@H](C)C(=O)N[C@@H](CO)C(=O)N[C@@H](CCCNC(=N)N)C(=O)N[C@H](C(=O)N[C@H](C(=O)N[C@@H](CC(=O)O)C(=O)N[C@@H](C)C(=O)N[C@H](C(=O)N[C@H](C(=O)N[C@@H](CCC(=O)O)C(=O)N[C@@H](CCC(N)=O)C(=O)N[C@H](C(=O)N[C@@H](CCCCN)C(=O)N[C@@H](C)C(=O)N[C@@H](C)C(=O)NCC(=O)N[C@@H](C)C(=O)N[C@@H](Cc1ccc(O)cc1)C(=O)O)C(C)C)[C@@H](C)CC)C(C)C)C(C)C)[C@@H](C)CC)[C@@H](C)CC [s-Ht31]
release of dyes from sperm loaded with BCECF or Fura 2 (plasma membrane integrity) [1]: did not compromise the integrity of the plasma membrane
sperm viability and plasma membrane integrity (uptake of vital dyes SYBR-green and rhodamine 123) [1]: did not decrease viability or disrupt the integrity of the sperm plasma membrane

Nc1nc(Cl)nc2c1ncn2[C@H]1C[C@H](O)[C@@H](CO)O1 [CDA, 2-chloro-2-deoxyadenosine]
sperm motility under conditions where sperm PKA is inhibited ([2]; with H-89): still induce or stimulate sperm motility
increase of basal PKA activity ([3]; both caudal and caput sperm, absence of cAMP): approximately 60%

O=S(=O)(NCCNCC=Cc1ccc(Br)cc1)c1cccc2cnccc12 [H-89, N-[2-(p-bromocinnamylamino)ethyl]-5-isoquinoline-sulfonamide]
effect on sperm motility stimulated by CDA ([2]; 50 μM H-89, 50 μM CDA): had no effect
inhibition at 50 µM ([2]; Bos taurus, Sperm, 50 μM, read-out: inhibition of basal sperm motility): ≤ 50%
effect on cellular PKA activity ([3]; sperm washed before lysis): strongly inhibited PKA activity
effect of preincubation on motility induction by CDA in caput sperm [4]: unaffected
